According to US20240327364A1, “THERAPEUTIC TARGETING OF GPR68 TO INDUCE FERROPTOSIS” (University Of Maryland, Baltimore, priority 2023, published 2024):
Read-outs that look alike come from different tables or passages of the source.

How the values were obtained:
zebrafish embryo = test: Zebrafish embryo phenotype; assay type: in vivo
Procedure: A chemical screen for small molecules that perturb embryonic development (dorsoventral axis) in zebrafish was performed as previously described (see Chen et al., 2009; Hao et al., 2013; Williams et al., 2015; Yu et al., 2008)). Briefly, pairs of WT zebrafish were mated, and fertilized eggs were arrayed in 96-well microtiter plates (5 embryos/well) containing […] E3 water. At 4 hours post fertilization (pf), a small molecule library from Vanderbilt High Throughput Screening Facility was added to each well to a final concentration of 10 μM. Embryos were incubated at 28.5 C until 24 and 48 hours pf, when they were examined for gross morphologic changes indicative of reproducible embryonic defects (dorsalization of the embryonic axis). A total of 30,000 compounds were screened. To discover novel small molecule modulators of embryonic development an unbiased screen of ˜30,000 small molecules was conducted, in which the compounds were assayed for their ability to induce phenotypic changes in the morphology of zebrafish. Further information on these assays can be found in Hao et al., 2013 and Williams et al., 2015. […] This compound was identified based on the phenotype of aberrant pigmentation. Compare FIG. 2B and FIG. 2C, which show a dorsal view of a representative DMSO vehicle control-treated zebrafish embryo at 48 hours pf and a dorsal view of a representative OGM1 (10 uM)-treated zebrafish embryo at 48 hours pf. […] Since GPCRs represent >30% of targets for FDA-approved small molecules and are known to modulate cell migration, activity against 158 GPCRs was assessed based on their chemical structures. GPCRs (158) were tested for agonist and antagonist activity at 10 μM. […] Chemical segregation analysis of zebrafish phenotype was conducted to further identify the inhibitory activity responsible for the zebrafish phenotype. […] The identities of the R groups in Formula A are shown below in Table 5.

Lpa1 = Lpa1 (Homo sapiens, UniProt Q92633); test: Lpa1 activity of OGM analogs (Table 5); assay type: cell-based
Chain of Lpa1 (Q92633 whole entry, species assumed): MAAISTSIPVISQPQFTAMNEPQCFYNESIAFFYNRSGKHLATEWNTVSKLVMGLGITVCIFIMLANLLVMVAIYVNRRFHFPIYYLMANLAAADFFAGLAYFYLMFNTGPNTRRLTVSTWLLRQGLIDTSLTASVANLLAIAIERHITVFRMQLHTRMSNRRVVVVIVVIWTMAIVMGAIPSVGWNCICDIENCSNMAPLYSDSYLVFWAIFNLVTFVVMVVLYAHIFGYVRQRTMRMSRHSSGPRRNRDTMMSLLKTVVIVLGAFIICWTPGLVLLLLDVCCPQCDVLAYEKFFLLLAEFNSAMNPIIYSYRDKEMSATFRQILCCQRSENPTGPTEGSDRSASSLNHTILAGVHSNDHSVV
Procedure: GPCR profiling assays were performed by Millipore (St. Louis, MO) using in cells expressing Gα15, a promiscuous G protein that enhances GPCR coupling to downstream Ca2+ signaling pathways. KinomeScan was conducted by DiscoveRx (Fremont, CA). Since GPCRs represent >30% of targets for FDA-approved small molecules and are known to modulate cell migration, activity against 158 GPCRs was assessed based on their chemical structures. GPCRs (158) were tested for agonist and antagonist activity at 10 μM. […] Chemical segregation analysis of zebrafish phenotype was conducted to further identify the inhibitory activity responsible for the zebrafish phenotype. […] The identities of the R groups in Formula A are shown below in Table 5.

GPR68/OGR1 = biological target: T1, GPR68/OGR1 (Homo sapiens, UniProt Q15743); test: CHEM1-OGR1 cells Fluo-8 calcium assay, acidified media pH 6.4; assay type: cell-based
T1 construct: host or cells: Chem-1 (CHEM1-OGR1) cells
T1 sequence (Q15743 whole entry): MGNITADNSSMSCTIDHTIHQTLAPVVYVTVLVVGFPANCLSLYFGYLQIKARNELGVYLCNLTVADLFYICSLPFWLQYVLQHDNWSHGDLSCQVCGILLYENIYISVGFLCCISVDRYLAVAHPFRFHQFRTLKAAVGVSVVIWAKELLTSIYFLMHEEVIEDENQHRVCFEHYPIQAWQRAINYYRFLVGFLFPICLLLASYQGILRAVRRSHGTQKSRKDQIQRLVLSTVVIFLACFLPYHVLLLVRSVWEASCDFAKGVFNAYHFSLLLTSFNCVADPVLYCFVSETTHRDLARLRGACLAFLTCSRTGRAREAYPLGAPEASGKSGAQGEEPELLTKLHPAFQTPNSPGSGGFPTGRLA
Procedure: Briefly, the methods were: On the day before the assay 20,000 cells per well of CHEM1-OGR1 cells were plated in 10% DMEM containing 10% FBS and 1% Pen/Strep into a 96 well plate. After 24 hours media was removed and cells were stained with 80 μL Fluo-8 calcium indicator dye according to manufacturer's protocol. After staining cells were treated with 20 uL of 4× concentration of test compounds. Using kinetic imaging in the Lionheart HCS fluorescence intensity was continuously measure at 10 frames per second, for 5 seconds before 100 μL of acidified media was added to the well resulting in a pH of 6.4. A ratio of fluorescence intensities prior to addition and at peak were calculated and averaged. The resulting data were platted and using a 4 parameter logistic regression EC50 (the concentration causing 50% effective inhibition) for each test compound was determined.

LPS-induced ALI = test: LPS-induced acute lung injury; assay type: in vivo, mice
Description: PMN (polymorphonuclear neutrophils).

[1] = concentrations up to 200× the IC50
[2] = concentration causing 50% effective inhibition of calcium response to pH 6.4, read-out: EC50

Structure (SMILES)	EC50 (GPR68/OGR1; [2]) [nM]	other results
Cc1noc(-c2ccc(CSCCC(=O)O)cc2)c1NC(=O)OC(C)c1ccccc1Cl (stereo not drawn) [LPAi]		induction of zebrafish phenotype (zebrafish embryo; concentrations up to 50 μM, ˜200× its IC50): failed to induce the phenotype; induction of zebrafish phenotype (zebrafish embryo; [1]): failed to induce a noticeable phenotype; IC50 (Lpa1): 250 nM
Cc1ccc2c(c1)C1(NN=C(c3ccccc3)S1)C(=O)N2 (stereo not drawn) [OGM3]		IC50 (Lpa1): 6400 nM; EC50 (GPR68/OGR1; Table 5, read-out: GPR68): 760 nM
CCc1ccc2c(c1)C1(NN=C(c3ccccc3O)S1)C(=O)N2 (stereo not drawn) [OGM4]		IC50 (Lpa1): 1400 nM; EC50 (GPR68/OGR1; Table 5, read-out: GPR68): 3400 nM
CN1C(=O)C2(NN=C(c3cccc4ccccc34)S2)c2ccccc21 (stereo not drawn) [OGM6]		EC50 (GPR68/OGR1; Table 5, read-out: GPR68): 1500 nM
O=C1Nc2ccc(Cl)cc2C12NN=C(c1ccccc1)S2 (stereo not drawn) [OGM7]	1170	
O=C1Nc2ccccc2C12NN=C(c1ccccc1)S2 (stereo not drawn) [OGM8]	2740	
O=C1Nc2ccc(F)cc2C12NN=C(c1ccccc1)S2 (stereo not drawn) [OGM9]	2840	
COc1ccc(C2=NNC3(S2)C(=O)Nc2ccccc23)cc1 (stereo not drawn) [OGM10]	1440	
COc1ccc(C2=NNC3(S2)C(=O)Nc2ccc(Cl)cc23)cc1 (stereo not drawn) [OGM11]	4390	
COc1ccc(C2=NNC3(S2)C(=O)Nc2ccc(F)cc23)cc1 (stereo not drawn) [OGM12]	756	
O=C1Nc2ccccc2C12NN=C(c1ccc(Cl)cc1)S2 (stereo not drawn) [OGM13]	< 826	
O=C1Nc2ccc(F)cc2C12NN=C(c1ccc(Cl)cc1)S2 (stereo not drawn) [OGM14]	1830	
Cc1ccc(C2=NNC3(S2)C(=O)Nc2ccccc23)cc1 (stereo not drawn) [OGM15]	1060	
Cc1ccc(C2=NNC3(S2)C(=O)Nc2ccc(Cl)cc23)cc1 (stereo not drawn) [OGM16]	785	
COc1ccc(C2=NNC3(S2)C(=O)Nc2ccc(OC)cc23)cc1 (stereo not drawn) [OGM17]	262	inflammatory cell infiltrates in BAL (LPS-induced ALI; LPS 0.7 mg/kg intratracheally, compounds intraperitoneally): reduced inflammatory cell infiltrates in BAL; reversal of markers of ALI, comparison with OGM2 (LPS-induced ALI; mouse, in vivo): much more potent in reversing the markers of ALI due to LPS in vivo
Cc1ccc(C2=NNC3(S2)C(=O)Nc2ccc(F)cc23)cc1 (stereo not drawn) [OGM18]	769	
O=C1Nc2ccc(Cl)cc2C12NN=C(c1ccc(Cl)cc1)S2 (stereo not drawn) [OGM19]	2320	
O=C1Nc2ccccc2C12NN=C(c1ccc(F)cc1)S2 (stereo not drawn) [OGM20]	4000	
O=C1Nc2ccc(Cl)cc2C12NN=C(c1ccc(F)cc1)S2 (stereo not drawn) [OGM21]	722	
COc1ccc2c(c1)C1(NN=C(c3ccc(Cl)cc3)S1)C(=O)N2 (stereo not drawn) [OGM22]	669	

Structure (SMILES)	EC50 (GPR68/OGR1; [2]) [nM]	other results
O=C1Nc2ccc(Cl)cc2C12NN=C(c1cccc3ccccc13)S2 (stereo not drawn) [OGM23]	500	
COc1ccc2cc(C3=NNC4(S3)C(=O)Nc3ccc(Cl)cc34)ccc2c1 (stereo not drawn) [OGM24]	90	
COc1ccc2cc(C3=NNC4(S3)C(=O)Nc3ccc(F)cc34)ccc2c1 (stereo not drawn) [OGM26]	655	
CCc1ccc2c(c1)C1(NN=C(c3ccc4cc(OC)ccc4c3)S1)C(=O)N2 (stereo not drawn) [OGM27]	> 10000	
CCc1ccc2c(c1)C1(NN=C(c3ccc(OC)cc3)S1)C(=O)N2 (stereo not drawn) [OGM28]	> 10000	
COc1ccc(C2=NNC3(S2)C(=O)N(CC=C(C)C)c2ccc(Cl)cc23)cc1 (stereo not drawn) [OGM29]	> 10000	
COc1ccc(C2=NNC3(S2)C(=O)N(CC=C(C)C)c2ccccc23)cc1 (stereo not drawn) [OGM30]	> 10000	
CC(C)=CCN1C(=O)C2(NN=C(c3ccc(Cl)cc3)S2)c2cc(Cl)ccc21 (stereo not drawn) [OGM31]	9080	
CC(C)=CCN1C(=O)C2(NN=C(c3cccc4ccccc34)S2)c2cc(Cl)ccc21 (stereo not drawn) [OGM32]	> 10000	
CC(C)=CCN1C(=O)C2(NN=C(c3cccc4ccccc34)S2)c2ccccc21 (stereo not drawn) [OGM33]	> 10000	
COc1ccc2cc(C3=NNC4(S3)C(=O)N(CC=C(C)C)c3ccccc34)ccc2c1 (stereo not drawn) [OGM34]	> 10000	
COc1ccc2cc(C3=NNC4(S3)C(=O)N(CC=C(C)C)c3ccc(Cl)cc34)ccc2c1 (stereo not drawn) [OGM35]	> 10000	
CN1C(=O)C2(NN=C(c3ccccc3)S2)c2cc(Br)ccc21 (stereo not drawn) [OGM36]	5600	
COC(=O)c1ccc2c(c1)C1(NN=C(c3ccc4ncccc4c3)S1)C(=O)N2 (stereo not drawn) [OGM37]	3690	
COc1ccc2c(c1)C1(NN=C(c3cccc4cccnc34)S1)C(=O)N2 (stereo not drawn) [OGM38]	2620	
COc1ccc2c(c1)NC(=O)C21NN=C(c2ccc3ncccc3c2)S1 (stereo not drawn) [OGM39]	1170	
CCc1ccc2c(c1)C1(NN=C(c3ccc4ncccc4c3)S1)C(=O)N2 (stereo not drawn) [OGM40]	1190	
COC(=O)c1ccc2c(c1)C1(NN=C(c3ccccc3)S1)C(=O)N2 (stereo not drawn) [OGM41]	2260	
O=C(O)c1ccc2c(c1)C1(NN=C(c3ccccc3)S1)C(=O)N2 (stereo not drawn) [OGM42]	1880	
COc1ccc2c(c1)C1(NN=C(c3ccc4ncccc4c3)S1)C(=O)N2 (stereo not drawn) [OGM43]	> 10000	

Structure (SMILES)	EC50 (GPR68/OGR1; [2]) [nM]	other results
COC(=O)c1ccc2c(c1)C1(NN=C(c3cccc4cccnc34)S1)C(=O)N2 (stereo not drawn) [OGM44]	4050	
O=C1Nc2ccc(F)cc2C12NN=C(c1cccc3cccnc13)S2 (stereo not drawn) [OGM46]	1470	
COC(=O)c1ccc2c(c1)C1(NN=C(c3cccnc3)S1)C(=O)N2 (stereo not drawn) [OGM47]	> 10000	
CCc1ccc2c(c1)C1(NN=C(c3cccnc3)S1)C(=O)N2 (stereo not drawn) [OGM48]	> 10000	
CCc1ccc2c(c1)C1(NN=C(c3ccnc(OC)c3)S1)C(=O)N2 (stereo not drawn) [OGM49, 5-ethyl-5′-(2-methoxypyridin-4-yl)-1,2-dihydro-3′H-spiro[indole-3,2′-[1,3,4]thiadiazol]-2-one: 2,2,2-trifluoroacetic acid]	1420	
COc1ccc2c(c1)NC(=O)C21NN=C(c2ccnc(OC)c2)S1 (stereo not drawn) [OGM51]	3570	
NS(=O)(=O)c1ccc2c(c1)C1(NN=C(c3ccccc3)S1)C(=O)N2 (stereo not drawn) [OGM52]	3730	
O=C(O)c1ccc2c(c1)C1(NN=C(c3ccc4ncccc4c3)S1)C(=O)N2 (stereo not drawn) [OGM54]	4770	
NS(=O)(=O)c1ccc2c(c1)C1(NN=C(c3ccc4ncccc4c3)S1)C(=O)N2 (stereo not drawn) [OGM55]	3930	
O=C1Nc2ccc(F)cc2C12NN=C(c1cccnc1)S2 (stereo not drawn) [OGM56]	3580	
CCc1ccc2c(c1)C1(NN=C(c3cccc4cccnc34)S1)C(=O)N2 (stereo not drawn) [OGM58]	5480	
COc1ccc2c(c1)NC(=O)C21NN=C(c2ccncc2)S1 (stereo not drawn) [OGM59]	832	
O=C(O)c1ccc2c(c1)C1(NN=C(c3cccnc3)S1)C(=O)N2 (stereo not drawn) [OGM61]	2190	
COc1ccc2c(c1)C1(NN=C(c3ccnc(OC)c3)S1)C(=O)N2 (stereo not drawn) [OGM63]	3520	
CCc1ccc2c(c1)C1(NN=C(c3ccc(C(F)(F)F)nc3)S1)C(=O)N2 (stereo not drawn) [OGM71]	10500	
COc1ccc2c(c1)C1(NN=C(c3ccc(Br)cc3)S1)C(=O)N2 (stereo not drawn) [OGM73]	> 10000	
O=C1Nc2ccc(F)cc2C12NN=C(c1ccc(Br)cc1)S2 (stereo not drawn) [OGM74]	296	
COc1ccc2c(c1)C1(NN=C(c3ccc(C(F)(F)F)nc3)S1)C(=O)N2 (stereo not drawn) [OGM75]	1590	
O=C1Nc2ccc(F)cc2C12NN=C(c1ccc(C(F)(F)F)nc1)S2 (stereo not drawn) [OGM76]	5760	
COc1cc(Br)c(S(=O)(=O)Nc2ccc(Cl)c(O[C@@H]3CCN(C)C3)c2)cc1OC [UT2i]		induction of zebrafish phenotype (zebrafish embryo; [1]): failed to induce a noticeable phenotype
